# Like-named read-outs stand apart in the source and are kept apart here.
# What was measured:
# [1] = test system: 12 myeloma cell lines (Ark, BW288, CAG, Delta47, DF15, JJN3, kms11, L363, opm2, RPMI8226, U266 and XG1); assay: Comparative study with existing anti-myeloma drugs (CellTiter-Glo); format: cell-based, human
# From the text: The results obtained from these controls are pooled together in the figure (●). The dose of each compound was set […].
# Comparative study of NSC 338258 with existing anti-myeloma drugs Myeloma cell lines were exposed to NSC 338258 and existing anti myeloma drugs, Adriamycin® (Doxorubicin Hydrochloride) and Etoposide (VP-16-213) in ninety six well culture plates. The concentration of each compound was set […]. […] The cell growth was near zero in the following days (day 4 onwards; FIG. 6). It was also observed that 12 myeloma cell lines (Ark, BW288, CAG, Delta47, DF15, JJN3, kms11, L363, opm2, RPMI8226, U266 and XG1) responded to the same dosage (0.2 μM) of NSC 338258, VP-16-213 and Adriamycin in 5 days.
# Ark myeloma cell line = assay: CellTiter-Glo luminescent cell viability assay, Ark; format: cell-based, human; set-up: unit of the concentration uncertain
# Description: (§1) The dosage of each derivative was set at 2, 0.2 and 0.02 mM. A cell culture medium control and 0.5% DMSO control was maintained in each experiment. The cell viability was tested each day over a period of five days using the CellTiter-Glo luminescent cell viability assay kit from Promega Co.
# (§2) Cell Titer-Glo luminescent cell viability assay kit from Promega Co (Madison, Wis.) was used to determine cell growth inhibition by the various compounds tested. The kit determines cell viability by quantifying the amount of ATP present in the cell culture medium. Presence of ATP signals the presence of metabolically active cells (3). The intensity of luminescence was measured by a computerized luminometer (Promega, Co. Madison, Wis.). Each well was read five times within 30 minutes of adding Cell Titer-Glo reagent mixture.
# (§3) Cells were contacted with the antineoplastic agents in ninety six well culture plates. The concentration of each neoplastic agent was maintained a constant. A cell culture medium control and 0.5% DMSO control were maintained in each set of experiments. The cell viability was tested every day using the CellTiter-Glo luminescent cell viability kit from Promega Co. (Madison, Wis.) for a period of five days.
# CAG myeloma cell line = assay: CellTiter-Glo luminescent cell viability assay, CAG; format: cell-based, human; set-up: unit of the concentration uncertain
# Description: as §1, §2, §3
# [2] = test system: RPMI8226 myeloma cell line; assay: CellTiter-Glo luminescent cell viability assay, RPMI8226; format: cell-based, human; set-up: unit of the concentration uncertain
# Description: as §1
# as §2, with “mixture. […]” for “mixture.”
# U266 myeloma cell line = test system: U266 myeloma cell line; set-up: cell viability (CellTiter-Glo luminescent assay): dose or concentration left out as unconfirmed; conditions: U266
# Description: as §1
# U266 cell line was one of 12 myeloma cell lines used in screening of anti-myeloma agents. In FIG. 10A, cells were treated with 14 ellipticine derivatives (0.5 mM) obtained from the DTP; control cells were untreated. Ellipticine derivatives are coded with NSC identifiers. For 5 days, cell viability was measured every 24 hours using CellTiter-Glo Luminescent Assay. […] In FIG. 10B, U266 cells, along with six other myeloma cell lines, were co-cultured in direct contact with human fetal bone mesenchymal cells and treated with EPED3 (0.5 mM and 2 mM) or Velcade (0.5 mM); control cells were untreated. Cell proliferation was assessed by MTT assay every 24 hours for 5 days. […] Error bars indicate standard deviation.
# as §2, §3
# [3] = test system: myeloma cell lines ARK, KMS11, RPMI 8226, and U266; assay: In vitro screening of DTP compounds on myeloma cell lines (CellTiter-Glo); format: cell-based, human
# Description: Eight myeloma cell lines were contacted with the antineoplastic agents to be tested in ninety six well culture plates. […]
# Myeloma cell lines were maintained at >90% viability at 37° C. and 5% CO2. Cells were diluted to 20,000 cells/ml in fresh medium. A 50-μl aliquot of cell suspension was seeded in 96-well tissue culture plates to final cell counts of 1,000 cells/well. All compounds obtained from NCI's Developmental Therapeutics Program (DTP compounds) were dissolved in 100% dimethylsulfoxide (DMSO) (Sigma-Aldrich, St. Louis, Mo.) at 1 mg/ml and further diluted in fresh medium to 1 μg/ml. Each compound (50-μl aliquots) was distributed to a well containing 1,000 myeloma cells. Each plate included controls with addition of only medium or only DMSO (0.5% final concentration). All experiments were conducted in triplicate.
# Using CellTiter-Glo Luminescent Assay kit (Promega, Madison, Wis.) according to manufacturer's instructions, cell viability was assayed every 24 hours after addition of DTP compound for 5 days. Briefly, the CellTiter-Glo substrate was dissolved in buffer, and 100 μl was added to each well. […] The statistic sampling distribution for each compound per cell line was based on sample of n=15 measurements.
# Other ellipticine derivatives from the DTP (at 0.5 mM final concentration) were used to screen the same four myeloma cell lines.
# NCI-60 cancer panel = conditions: average across the cell lines of the concentration at which growth is inhibited 50%; unit in the High Conc. footnote; cited from earlier work
smiles,measurement,setting,value
"COc1cc([C@@H]2c3cc4c(cc3[C@@H](O[C@@H]3O[C@@H]5CO[C@@H](C)O[C@H]5[C@H](O)[C@H]3O)[C@H]3COC(=O)[C@H]23)OCO4)cc(OC)c1O [VP-16-213, Etoposide]",response of 12 myeloma cell lines,"[1]; 0.2 μM, in 5 days",responded
same,speed of response compared with EPED3,"[1]; myeloma cell lines (n=12), regardless of the concentration",much more delayed response
"COc1ccc2[nH]c3c(C)c4ccncc4c(C)c3c2c1 [NSC 69187, ellipticine-9-methoxy-]",cell viability (CellTiter-Glo luminescent assay),"Ark myeloma cell line; 0.02 (unit uncertain), Day 1","119,617"
same,cell viability (CellTiter-Glo luminescent assay),"Ark myeloma cell line; 0.02 (unit uncertain), Day 2","244,779"
same,cell viability (CellTiter-Glo luminescent assay),"Ark myeloma cell line; 0.02 (unit uncertain), Day 3","371,712"
same,cell viability (CellTiter-Glo luminescent assay),"Ark myeloma cell line; 0.02 (unit uncertain), Day 4","824,251"
same,cell viability (CellTiter-Glo luminescent assay),"Ark myeloma cell line; 0.02 (unit uncertain), Day 5","1,347,042"
same,cell viability (CellTiter-Glo luminescent assay),"Ark myeloma cell line; 0.2 (unit uncertain), Day 1","92,678"
same,cell viability (CellTiter-Glo luminescent assay),"Ark myeloma cell line; 0.2 (unit uncertain), Day 2","208,050"
same,cell viability (CellTiter-Glo luminescent assay),"Ark myeloma cell line; 0.2 (unit uncertain), Day 3","256,789"
same,cell viability (CellTiter-Glo luminescent assay),"Ark myeloma cell line; 0.2 (unit uncertain), Day 4","506,725"
same,cell viability (CellTiter-Glo luminescent assay),"Ark myeloma cell line; 0.2 (unit uncertain), Day 5","826,957"
same,cell viability (CellTiter-Glo luminescent assay),"Ark myeloma cell line; 2 (unit uncertain), Day 1","14,932"
same,cell viability (CellTiter-Glo luminescent assay),"Ark myeloma cell line; 2 (unit uncertain), Day 2",815
same,cell viability (CellTiter-Glo luminescent assay),"Ark myeloma cell line; 2 (unit uncertain), Day 3",289
same,cell viability (CellTiter-Glo luminescent assay),"Ark myeloma cell line; 2 (unit uncertain), Day 4",463
same,cell viability (CellTiter-Glo luminescent assay),"Ark myeloma cell line; 2 (unit uncertain), Day 5",375
same,cell viability (CellTiter-Glo luminescent assay),"CAG myeloma cell line; 0.02 (unit uncertain), Day 1","188,754"
same,cell viability (CellTiter-Glo luminescent assay),"CAG myeloma cell line; 0.02 (unit uncertain), Day 2","552,402"
same,cell viability (CellTiter-Glo luminescent assay),"CAG myeloma cell line; 0.02 (unit uncertain), Day 3","805,110"
same,cell viability (CellTiter-Glo luminescent assay),"CAG myeloma cell line; 0.02 (unit uncertain), Day 4","2,582,505"
same,cell viability (CellTiter-Glo luminescent assay),"CAG myeloma cell line; 0.02 (unit uncertain), Day 5","4,299,468"
same,cell viability (CellTiter-Glo luminescent assay),"CAG myeloma cell line; 0.2 (unit uncertain), Day 1","164,436"
same,cell viability (CellTiter-Glo luminescent assay),"CAG myeloma cell line; 0.2 (unit uncertain), Day 2","358,735"
same,cell viability (CellTiter-Glo luminescent assay),"CAG myeloma cell line; 0.2 (unit uncertain), Day 3","511,726"
same,cell viability (CellTiter-Glo luminescent assay),"CAG myeloma cell line; 0.2 (unit uncertain), Day 4","1,187,656"
same,cell viability (CellTiter-Glo luminescent assay),"CAG myeloma cell line; 0.2 (unit uncertain), Day 5","1,595,148"
same,cell viability (CellTiter-Glo luminescent assay),"CAG myeloma cell line; 2 (unit uncertain), Day 1","88,285"
same,cell viability (CellTiter-Glo luminescent assay),"CAG myeloma cell line; 2 (unit uncertain), Day 2","58,508"
same,cell viability (CellTiter-Glo luminescent assay),"CAG myeloma cell line; 2 (unit uncertain), Day 3","17,247"
same,cell viability (CellTiter-Glo luminescent assay),"CAG myeloma cell line; 2 (unit uncertain), Day 4","9,111"
same,cell viability (CellTiter-Glo luminescent assay),"CAG myeloma cell line; 2 (unit uncertain), Day 5","1,745"
same,cell viability (CellTiter-Glo luminescent assay),"[2]; 0.02 (unit uncertain), Day 1","103,366"
same,cell viability (CellTiter-Glo luminescent assay),"[2]; 0.02 (unit uncertain), Day 2","238,331"
same,cell viability (CellTiter-Glo luminescent assay),"[2]; 0.02 (unit uncertain), Day 3","411,171"
same,cell viability (CellTiter-Glo luminescent assay),"[2]; 0.02 (unit uncertain), Day 4","869,367"
same,cell viability (CellTiter-Glo luminescent assay),"[2]; 0.02 (unit uncertain), Day 5","1,011,078"
same,cell viability (CellTiter-Glo luminescent assay),"[2]; 0.2 (unit uncertain), Day 1","82,834"
same,cell viability (CellTiter-Glo luminescent assay),"[2]; 0.2 (unit uncertain), Day 2","148,198"
same,cell viability (CellTiter-Glo luminescent assay),"[2]; 0.2 (unit uncertain), Day 3","216,515"
same,cell viability (CellTiter-Glo luminescent assay),"[2]; 0.2 (unit uncertain), Day 4","311,641"
same,cell viability (CellTiter-Glo luminescent assay),"[2]; 0.2 (unit uncertain), Day 5","379,475"
same,cell viability (CellTiter-Glo luminescent assay),"[2]; 2 (unit uncertain), Day 1","21,912"
same,cell viability (CellTiter-Glo luminescent assay),"[2]; 2 (unit uncertain), Day 2","2,688"
same,cell viability (CellTiter-Glo luminescent assay),"[2]; 2 (unit uncertain), Day 3",820
same,cell viability (CellTiter-Glo luminescent assay),"[2]; 2 (unit uncertain), Day 4",601
same,cell viability (CellTiter-Glo luminescent assay),"[2]; 2 (unit uncertain), Day 5",213
same,cell viability (CellTiter-Glo luminescent assay),"U266 myeloma cell line; 0.02, Day 1","30,188"
same,cell viability (CellTiter-Glo luminescent assay),"U266 myeloma cell line; 0.02, Day 2","46,889"
same,cell viability (CellTiter-Glo luminescent assay),"U266 myeloma cell line; 0.02, Day 3","63,864"
same,cell viability (CellTiter-Glo luminescent assay),"U266 myeloma cell line; 0.02, Day 4","112,366"
same,cell viability (CellTiter-Glo luminescent assay),"U266 myeloma cell line; 0.02, Day 5","145,073"
same,cell viability (CellTiter-Glo luminescent assay),"U266 myeloma cell line; 0.2, Day 1","24,729"
same,cell viability (CellTiter-Glo luminescent assay),"U266 myeloma cell line; 0.2, Day 2","38,799"
same,cell viability (CellTiter-Glo luminescent assay),"U266 myeloma cell line; 0.2, Day 3","45,134"
same,cell viability (CellTiter-Glo luminescent assay),"U266 myeloma cell line; 0.2, Day 4","69,867"
same,cell viability (CellTiter-Glo luminescent assay),"U266 myeloma cell line; 0.2, Day 5","90,555"
same,cell viability (CellTiter-Glo luminescent assay),"U266 myeloma cell line; 2, Day 1","7,818"
same,cell viability (CellTiter-Glo luminescent assay),"U266 myeloma cell line; 2, Day 2","3,633"
same,cell viability (CellTiter-Glo luminescent assay),"U266 myeloma cell line; 2, Day 3","1,048"
same,cell viability (CellTiter-Glo luminescent assay),"U266 myeloma cell line; 2, Day 4",628
same,cell viability (CellTiter-Glo luminescent assay),"U266 myeloma cell line; 2, Day 5",144
same,inhibition of cell viability in four myeloma cell lines,"[3]; 0.5 mg/ml, every 24 hours over 5 days",most significantly inhibited cell viability
same,effective invitro dosage (cell growth inhibition),[3]; myeloma cell lines,0.2 µM
same,Mean GI50,NCI-60 cancer panel,−6.35 log^10 molar
C#CCN(N=O)C(=O)NCCCC(NC(C)=O)C(=O)NCc1ccccc1 (stereo not shown) [NSC 645583],Mean GI50,NCI-60 cancer panel,−4.17 log^10 molar
CSc1nc[nH]c1C(N)=S [NSC 684041],Mean GI50,NCI-60 cancer panel,−4.11 log^10 molar
Cc1ccc(S(=O)(=O)N=NC=C2c3ccccc3N(O)c3ccccc32)cc1 [NSC 627891],Mean GI50,NCI-60 cancer panel,−5.43 log^10 molar
O=C(/C=C/c1ccc(Cl)c(Cl)c1)c1ccc(Cl)cc1Cl [NSC 640531],Mean GI50,NCI-60 cancer panel,−4.99 log^10 molar
O=C1/C(=C/C=C/c2ccccc2)CCC1CNc1ccccc1 (stereo not shown) [NSC 661238],Mean GI50,NCI-60 cancer panel,−4.47 log^10 molar
CNC(=S)NC(=S)N(C)C [NSC 622693],Mean GI50,NCI-60 cancer panel,−4.53 log^10 molar
"Nc1ncnc2c1ncn2[C@@H]1C=C(CO)[C@@H](O)[C@H]1O [NSC 316458, Neplanocin A]",Mean GI50,NCI-60 cancer panel,−5.43 log^10 molar
"C[C@@H]1C[C@@H]2OC(=O)[C@]3(C)[C@H]2[C@@H](OC3(C)O)[C@]2(C)C(=O)C=C[C@@H]12 (stereo partly shown) [NSC 19942, Tenulin]",Mean GI50,NCI-60 cancer panel,−4.68 log^10 molar

# From US20070027175A1, “Antineoplastic activities of ellipticine and its derivatives” (priority 2005, published 2007)
